Test results from patent publication US11685732B2, “MYST family histone acetyltransferase inhibitors” (Epizyme, Inc., priority 2017, dated 2023).

Assays:
KAT-8 = KAT-8 (Homo sapiens (Human), UniProt Q9H7Z6); experiment: KAT-8 biochemical inhibition assay (SAMDI mass spectrometry)
Procedure, shortened: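 Compounds in 2% DMSO pre-incubated with 12.5 nM enzyme in 50 mM Tris pH 8.0 with Tween20, gelatin and 1 mM DTT. Then 1 μM peptide and 5 μM acetyl-CoA were added, 90 min at 25 °C; formic acid stop and SAMDI-TOF mass spectrometry for IC50.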

KAT-6A = KAT-6A (Homo sapiens (Human), UniProt Q92794); experiment: KAT-6A biochemical inhibition assay (SAMDI mass spectrometry)
Chain of KAT-6A (Q92794 other isoform, or with tags, fused parts or gaps): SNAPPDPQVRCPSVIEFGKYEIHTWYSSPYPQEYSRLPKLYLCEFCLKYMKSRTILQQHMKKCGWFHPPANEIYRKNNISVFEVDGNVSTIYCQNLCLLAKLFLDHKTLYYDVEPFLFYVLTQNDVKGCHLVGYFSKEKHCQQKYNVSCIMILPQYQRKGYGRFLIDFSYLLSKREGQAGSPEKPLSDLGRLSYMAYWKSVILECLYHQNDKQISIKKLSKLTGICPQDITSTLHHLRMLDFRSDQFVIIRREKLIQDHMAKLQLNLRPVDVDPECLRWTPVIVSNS
Procedure, shortened: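 Enzyme (12.5 nM final) pre-incubated with serially diluted compounds (2% DMSO final) in 50 mM Tris pH 8.0 with Tween20, gelatin and 1 mM DTT. Reaction started with 1 μM peptide substrate and 1 μM acetyl-CoA, run 90 min at 25 °C, quenched with 0.5% formic acid, read by SAMDI-TOF mass spectrometry; IC50 derived.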

KAT-7 = KAT-7 (Homo sapiens (Human), UniProt O95251); experiment: KAT-7 biochemical inhibition assay (SAMDI mass spectrometry)
Chain of KAT-7 (O95251 other isoform, or with tags, fused parts or gaps): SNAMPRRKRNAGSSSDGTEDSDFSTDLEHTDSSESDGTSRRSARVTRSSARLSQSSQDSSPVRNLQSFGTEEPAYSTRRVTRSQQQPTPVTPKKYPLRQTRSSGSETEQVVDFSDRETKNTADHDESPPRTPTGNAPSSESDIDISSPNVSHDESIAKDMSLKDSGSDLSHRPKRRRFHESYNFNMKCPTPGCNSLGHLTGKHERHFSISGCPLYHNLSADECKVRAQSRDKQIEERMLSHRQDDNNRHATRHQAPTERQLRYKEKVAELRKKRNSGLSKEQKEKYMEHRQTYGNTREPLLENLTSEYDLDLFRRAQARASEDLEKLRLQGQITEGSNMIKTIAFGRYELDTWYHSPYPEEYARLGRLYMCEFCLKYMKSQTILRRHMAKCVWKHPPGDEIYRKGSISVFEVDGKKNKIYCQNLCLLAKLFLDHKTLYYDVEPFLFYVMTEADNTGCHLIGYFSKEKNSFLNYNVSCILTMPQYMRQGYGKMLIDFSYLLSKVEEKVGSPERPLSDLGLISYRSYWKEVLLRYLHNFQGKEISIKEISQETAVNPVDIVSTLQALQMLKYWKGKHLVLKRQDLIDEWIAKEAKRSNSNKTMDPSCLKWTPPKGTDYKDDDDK
Procedure, shortened: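 KAT-7 (6 nM) was pre-incubated with serially diluted compound (2% DMSO) in Tris pH 8.0 with DTT. Reaction with 1 μM peptide and 2 μM acetyl-CoA ran 120 min at 25 °C and was stopped with 0.5% formic acid. Acetylation was read by SAMDI-TOF mass spectrometry to give IC50.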

KAT-5 = KAT-5 (Homo sapiens (Human), UniProt Q92993); experiment: KAT-5 biochemical inhibition assay (SAMDI mass spectrometry)
Chain of KAT-5 (Q92993 other isoform, or with tags, fused parts or gaps): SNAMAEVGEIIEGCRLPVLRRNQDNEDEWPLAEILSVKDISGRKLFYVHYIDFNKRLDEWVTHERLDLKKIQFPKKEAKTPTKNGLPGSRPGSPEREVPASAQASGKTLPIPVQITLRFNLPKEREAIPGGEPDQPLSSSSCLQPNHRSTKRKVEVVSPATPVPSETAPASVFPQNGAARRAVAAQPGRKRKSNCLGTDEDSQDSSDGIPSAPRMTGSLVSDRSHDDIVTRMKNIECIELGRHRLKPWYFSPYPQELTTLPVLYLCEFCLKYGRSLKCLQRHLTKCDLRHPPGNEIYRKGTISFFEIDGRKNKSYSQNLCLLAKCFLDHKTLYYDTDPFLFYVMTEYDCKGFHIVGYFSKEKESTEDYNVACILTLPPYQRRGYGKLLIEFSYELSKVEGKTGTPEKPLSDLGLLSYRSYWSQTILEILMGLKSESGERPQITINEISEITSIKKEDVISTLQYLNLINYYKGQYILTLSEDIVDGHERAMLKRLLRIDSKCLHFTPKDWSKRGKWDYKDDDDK
Procedure, shortened: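 KAT-5 at 9 nM final was preincubated with serially diluted compound (2% DMSO) in 50 mM Tris pH 8.0 with 1 mM DTT. Reaction ran with 1 μM peptide substrate and 0.5 μM acetyl-CoA for 90 min at 25° C, was quenched with 0.5% formic acid, and was read by SAMDI-TOF mass spectrometry.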

Chain of KAT-8 (Q9H7Z6 other isoform, or with tags, fused parts or gaps): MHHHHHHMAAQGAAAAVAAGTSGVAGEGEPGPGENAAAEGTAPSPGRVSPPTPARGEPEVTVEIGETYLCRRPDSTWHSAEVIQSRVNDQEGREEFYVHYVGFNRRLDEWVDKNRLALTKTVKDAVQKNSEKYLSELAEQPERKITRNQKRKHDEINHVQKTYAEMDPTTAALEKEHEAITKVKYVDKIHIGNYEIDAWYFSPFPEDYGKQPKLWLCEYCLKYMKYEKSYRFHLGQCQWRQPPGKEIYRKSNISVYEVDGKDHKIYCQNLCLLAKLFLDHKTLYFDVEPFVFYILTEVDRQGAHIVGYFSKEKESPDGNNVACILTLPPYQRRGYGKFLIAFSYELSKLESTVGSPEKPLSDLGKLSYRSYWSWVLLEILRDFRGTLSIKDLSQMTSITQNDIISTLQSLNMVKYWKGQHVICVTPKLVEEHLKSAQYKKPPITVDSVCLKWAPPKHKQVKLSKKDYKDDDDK

| Compound | IC50 (KAT-8) [µM] | IC50 (KAT-6A) [µM] | IC50 (KAT-7) [µM] | IC50 (KAT-5) [µM] |
| --- | --- | --- | --- | --- |
| COCCn1cc(-c2cc(C)c(F)c(C(=O)NNS(=O)(=O)C3CCCCC3)c2)cn1 [Compound I-152] | > 100 | > 100 | > 100 | 10 to 50 |
| Cc1cc(-c2cncn2C)cc(C(=O)NNS(=O)(=O)C2CCCCC2)c1F [Compound I-153] | > 100 | > 100 | > 100 | > 100 |
| CCn1cc(-c2cc(C)c(F)c(C(=O)NNS(=O)(=O)C3CCCCC3)c2)cn1 [Compound I-154] | > 100 | > 100 | < 10 | 10 to 50 |
| Cc1cc(-c2cnn(C(C)C)c2)cc(C(=O)NNS(=O)(=O)C2CCCCC2)c1F [Compound I-155] | > 100 | > 100 | 10 to 50 | > 100 |
| Cc1cc(-c2cnn(C)c2)cc(C(=O)NNS(=O)(=O)C2CCCCC2)c1F [Compound I-156] | > 100 | > 100 | < 10 | 10 to 50 |
| Cn1cc(-c2cc(Cl)c(F)c(C(=O)NNS(=O)(=O)CC3CCCCC3)c2)cn1 [Compound I-158] | > 100 | 10 to 50 | < 10 | < 10 |
| CNC(=O)N1CC(CS(=O)(=O)NNC(=O)c2cc(-c3cn(C)cn3)cc(Cl)c2F)C1 [Compound I-160] | 10 to 50 | 10 to 50 | < 10 | 10 to 50 |
| COc1ccc(CN(C)C(=O)N[C@H]2C[C@@H](CS(=O)(=O)NNC(=O)c3cc(-c4cn(C)cn4)cc(Cl)c3F)C2)cc1 [Compound I-161] | 10 to 50 | < 10 | < 10 | < 10 |
| COc1ccc(CN(C)C(=O)N2CC[C@H](CS(=O)(=O)NNC(=O)c3cc(-c4cn(C)cn4)cc(Cl)c3F)C2)cc1 [Compound I-162] | 10 to 50 | 10 to 50 | < 10 | < 10 |
| CN(C)C(=O)N[C@H]1CC[C@@H](CS(=O)(=O)NNC(=O)c2cc(-c3cn(C)cn3)cc(Cl)c2F)CC1 [Compound I-163] | 10 to 50 | < 10 | < 10 | < 10 |
| CCS(=O)(=O)N1CC(CS(=O)(=O)NNC(=O)c2cc(-c3cn(C)cn3)cc(Cl)c2F)C1 [Compound I-164] | 10 to 50 | < 10 | < 10 | 10 to 50 |
| O=C(NNS(=O)(=O)CC1CCOCC1)c1cc(-n2cncn2)cc(Cl)c1F [Compound I-165] | 10 to 50 | 10 to 50 | 10 to 50 | 10 to 50 |
| CN(C)C(=O)N1CC(CS(=O)(=O)NNC(=O)c2cc(-c3cn(C)cn3)cc(Cl)c2F)C1 [Compound I-167] | 10 to 50 | < 10 | < 10 | 10 to 50 |
| CCNC(=O)N1CC(CS(=O)(=O)NNC(=O)c2cc(-c3cn(C)cn3)cc(Cl)c2F)C1 [Compound I-168] | 10 to 50 | 10 to 50 | < 10 | 10 to 50 |
| Cn1cnc(-c2cc(Cl)c(F)c(C(=O)NNS(=O)(=O)CC3CN(C(=O)N4CCC4)C3)c2)c1 [Compound I-169] | 10 to 50 | < 10 | < 10 | 10 to 50 |
| Cn1cnc(-c2cc(Cl)c(F)c(C(=O)NNS(=O)(=O)CC3CN(S(=O)(=O)C4CCC4)C3)c2)c1 [Compound I-170] | 10 to 50 | < 10 | < 10 | 10 to 50 |
| COc1ccc(CN(C)C(=O)N2CCCC(CS(=O)(=O)NNC(=O)c3cc(-c4cn(C)cn4)cc(Cl)c3F)C2)cc1 (centres unmarked) [Compound I-171] | 10 to 50 | < 10 | < 10 | < 10 |
| CNC(=S)N1CC[C@H](CS(=O)(=O)NNC(=O)c2cc(-c3cn(C)cn3)cc(Cl)c2F)C1 [Compound I-172] | 10 to 50 | < 10 | < 10 | < 10 |
| Cn1cnc(-c2cc(Cl)c(F)c(C(=O)NNS(=O)(=O)C[C@H]3C[C@@H](NS(C)(=O)=O)C3)c2)c1 [Compound I-173] | 10 to 50 | < 10 | < 10 | < 10 |
| COc1ccc(CNC(=O)N[C@H]2C[C@H](CS(=O)(=O)NNC(=O)c3cc(-c4cn(C)cn4)cc(Cl)c3F)C2)cc1 [Compound I-174] | 10 to 50 | < 10 | < 10 | < 10 |
| COc1ccc(CN(C)C(=O)N[C@H]2C[C@H](CS(=O)(=O)NNC(=O)c3cc(-c4cn(C)cn4)cc(Cl)c3F)C2)cc1 [Compound I-175] | 10 to 50 | < 10 | < 10 | < 10 |

| Compound | IC50 (KAT-8) [µM] | IC50 (KAT-6A) [µM] | IC50 (KAT-7) [µM] | IC50 (KAT-5) [µM] |
| --- | --- | --- | --- | --- |
| CNC(=O)N[C@H]1CC[C@H](CS(=O)(=O)NNC(=O)c2cc(-c3cn(C)cn3)cc(Cl)c2F)CC1 [Compound I-176] | 10 to 50 | < 10 | < 10 | < 10 |
| COc1ccc(CNC(=O)NC2CCC(CS(=O)(=O)NNC(=O)c3cc(-c4cn(C)cn4)cc(Cl)c3F)CC2)cc1 (centres unmarked) [Compound I-177] | < 10 | < 10 | < 10 | < 10 |
| CCCS(=O)(=O)N1CC(CS(=O)(=O)NNC(=O)c2cc(-c3cn(C)cn3)cc(Cl)c2F)C1 [Compound I-178] | 10 to 50 | < 10 | < 10 | 10 to 50 |
| COc1ccc(CN(C)C(=O)N2CC[C@@H](CS(=O)(=O)NNC(=O)c3cc(-c4cn(C)cn4)cc(Cl)c3F)C2)cc1 [Compound I-179] | 10 to 50 | < 10 | < 10 | < 10 |
| CN(C)C(=O)N[C@H]1C[C@H](CS(=O)(=O)NNC(=O)c2cc(-c3cn(C)cn3)cc(Cl)c2F)C1 [Compound I-180] | 10 to 50 | < 10 | < 10 | < 10 |
| COc1ccc(CNC(=O)N2CCC(CS(=O)(=O)NNC(=O)c3cc(-c4cn(C)cn4)cc(Cl)c3F)C2)cc1 (centres unmarked) [Compound I-181] | 10 to 50 | < 10 | < 10 | < 10 |
| CNC(=S)N1CC[C@@H](CS(=O)(=O)NNC(=O)c2cc(-c3cn(C)cn3)cc(Cl)c2F)C1 [Compound I-183] | 10 to 50 | < 10 | < 10 | < 10 |
| CC(=O)N[C@H]1CC[C@@H](CS(=O)(=O)NNC(=O)c2cc(-c3cn(C)cn3)cc(Cl)c2F)CC1 [Compound I-184] | 10 to 50 | < 10 | < 10 | < 10 |
| Cn1cnc(-c2cc(Cl)c(F)c(C(=O)NNS(=O)(=O)CC3CN(S(=O)(=O)C4CC4)C3)c2)c1 [Compound I-185] | 10 to 50 | < 10 | < 10 | 10 to 50 |
| CNC(=O)N[C@H]1C[C@@H](CS(=O)(=O)NNC(=O)c2cc(-c3cn(C)cn3)cc(Cl)c2F)C1 [Compound I-186] | 10 to 50 | < 10 | < 10 | < 10 |
| CC(C)NC(=O)N1CCCC(CS(=O)(=O)NNC(=O)c2cc(-c3cn(C)cn3)cc(Cl)c2F)C1 (centres unmarked) [Compound I-187] | 10 to 50 | < 10 | < 10 | < 10 |
| CNC(=O)N[C@H]1C[C@H](CS(=O)(=O)NNC(=O)c2cc(-c3cn(C)cn3)cc(Cl)c2F)C1 [Compound I-188] | 10 to 50 | 10 to 50 | < 10 | 10 to 50 |
| COCCN(Cc1ccc(OC)cc1)C(=O)N1CCC(CS(=O)(=O)NNC(=O)c2cc(-c3cn(C)cn3)cc(Cl)c2F)C1 (centres unmarked) [Compound I-189] | 10 to 50 | < 10 | < 10 | < 10 |
| COCCNC(=O)N1CCC(CS(=O)(=O)NNC(=O)c2cc(-c3cn(C)cn3)cc(Cl)c2F)C1 (centres unmarked) [Compound I-190] | 10 to 50 | < 10 | < 10 | < 10 |
| CNC(=O)N1CCCC(CS(=O)(=O)NNC(=O)c2cc(-c3cn(C)cn3)cc(Cl)c2F)C1 (centres unmarked) [Compound I-191] | 10 to 50 | < 10 | < 10 | < 10 |
| COCCc1nc(-c2cc(Cl)c(F)c(C(=O)NNS(=O)(=O)CC3CCCCC3)c2)cn1C [Compound I-192] | 10 to 50 | 10 to 50 | < 10 | 10 to 50 |
| CC(C)S(=O)(=O)N1CC(CS(=O)(=O)NNC(=O)c2cc(-c3cn(C)cn3)cc(Cl)c2F)C1 [Compound I-193] | 10 to 50 | < 10 | < 10 | 10 to 50 |
| Cn1cnc(-c2cc(Cl)c(F)c(C(=O)NNS(=O)(=O)C[C@H]3CC[C@H](NC(N)=O)CC3)c2)c1 [Compound I-194] | 10 to 50 | < 10 | < 10 | < 10 |
| CCC(=O)N[C@H]1CC[C@H](CS(=O)(=O)NNC(=O)c2cc(-c3cn(C)cn3)cc(Cl)c2F)CC1 [Compound I-195] | 10 to 50 | < 10 | < 10 | < 10 |
| Cn1cnc(-c2cc(Cl)c(F)c(C(=O)NNS(=O)(=O)C[C@H]3CC[C@H](NC(=O)C4CCC4)CC3)c2)c1 [Compound I-196] | 10 to 50 | < 10 | < 10 | < 10 |
